Measured values taken from ChEMBL document CHEMBL3867477 (Bioorg Med Chem Lett, 2016).
In brackets after ≈: the same amount, converted by molar mass.

Tests used:
Cytochrome P450 2C9 = Cytochrome P450 2C9 (Homo sapiens, UniProt P11712); assay: Inhibition of CYP2C9 (unknown origin); type: ADME
[1] = Solubility of the compound; type: physicochemical
[2] = molecular target: Voltage-dependent L-type calcium channel subunit alpha-1C (Homo sapiens, UniProt Q13936); assay: Inhibition of Cav1.2 (unknown origin)
Cytochrome P450 3A4 = Cytochrome P450 3A4 (Homo sapiens, UniProt P08684); assay: Inhibition of CYP3A4 (unknown origin); type: ADME
Orexin receptor type 2 = molecular target: T1, Orexin receptor type 2 (Homo sapiens, UniProt O43614); assay: Displacement of (2S)-N-(2-pyrrol-1-ylphenyl)-1-[2-[1-(tritritiomethyl)benzimidazol-2-yl]sulfanylacetyl]pyrrolidine-2-carboxamide from human OX2 receptor expressed on CHO cell membrane measured after 3 hrs by TopCount method; type: cell membranes
T1 sequence (O43614 whole entry): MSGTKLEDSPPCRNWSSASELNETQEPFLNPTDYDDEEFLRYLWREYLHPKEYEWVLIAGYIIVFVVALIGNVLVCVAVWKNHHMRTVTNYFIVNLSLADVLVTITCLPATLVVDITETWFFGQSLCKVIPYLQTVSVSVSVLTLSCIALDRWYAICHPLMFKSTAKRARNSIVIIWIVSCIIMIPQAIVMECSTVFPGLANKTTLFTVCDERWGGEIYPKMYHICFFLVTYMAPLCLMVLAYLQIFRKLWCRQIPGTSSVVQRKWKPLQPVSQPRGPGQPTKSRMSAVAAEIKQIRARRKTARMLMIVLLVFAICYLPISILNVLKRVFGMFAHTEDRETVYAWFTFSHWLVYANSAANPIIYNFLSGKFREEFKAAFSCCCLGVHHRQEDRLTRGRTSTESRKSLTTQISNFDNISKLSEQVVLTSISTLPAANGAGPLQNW

[3] = Displacement of (2S)-N-(2-phenylphenyl)-1-[2-[1-(tritritiomethyl)benzimidazol-2-yl]sulfanylacetyl]pyrrolidine-2-carboxamide from human OX1 receptor Ile408-Val mutant expressed on CHO cell membrane measured after 3 hrs by TopCount method; type: cell membranes
CHO = assay: Selectivity index, ratio of Ki for human OX2 receptor expressed on CHO cell membrane to Ki for Ile408-Val variant human OX1 receptor expressed on CHO cell membrane; type: cell-based
[4] = Aqueous solubility of the compound at pH 7; type: physicochemical; settings: aqueous medium

Cytochrome P450 2C9, sequence (P11712 whole entry): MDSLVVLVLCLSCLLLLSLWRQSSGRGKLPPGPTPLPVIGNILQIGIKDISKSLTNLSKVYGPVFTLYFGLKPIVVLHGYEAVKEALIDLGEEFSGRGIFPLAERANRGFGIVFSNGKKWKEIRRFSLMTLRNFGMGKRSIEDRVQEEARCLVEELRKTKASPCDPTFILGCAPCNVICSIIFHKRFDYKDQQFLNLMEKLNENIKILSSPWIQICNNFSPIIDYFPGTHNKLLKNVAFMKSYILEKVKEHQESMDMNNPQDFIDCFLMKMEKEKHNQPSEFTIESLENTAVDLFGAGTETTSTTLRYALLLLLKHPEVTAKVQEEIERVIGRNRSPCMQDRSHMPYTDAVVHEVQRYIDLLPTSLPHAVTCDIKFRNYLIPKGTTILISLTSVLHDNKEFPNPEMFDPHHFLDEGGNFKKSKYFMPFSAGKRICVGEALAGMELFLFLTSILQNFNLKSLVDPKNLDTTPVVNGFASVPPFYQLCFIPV
Voltage-dependent L-type calcium channel subunit alpha-1C, sequence (Q13936 whole entry): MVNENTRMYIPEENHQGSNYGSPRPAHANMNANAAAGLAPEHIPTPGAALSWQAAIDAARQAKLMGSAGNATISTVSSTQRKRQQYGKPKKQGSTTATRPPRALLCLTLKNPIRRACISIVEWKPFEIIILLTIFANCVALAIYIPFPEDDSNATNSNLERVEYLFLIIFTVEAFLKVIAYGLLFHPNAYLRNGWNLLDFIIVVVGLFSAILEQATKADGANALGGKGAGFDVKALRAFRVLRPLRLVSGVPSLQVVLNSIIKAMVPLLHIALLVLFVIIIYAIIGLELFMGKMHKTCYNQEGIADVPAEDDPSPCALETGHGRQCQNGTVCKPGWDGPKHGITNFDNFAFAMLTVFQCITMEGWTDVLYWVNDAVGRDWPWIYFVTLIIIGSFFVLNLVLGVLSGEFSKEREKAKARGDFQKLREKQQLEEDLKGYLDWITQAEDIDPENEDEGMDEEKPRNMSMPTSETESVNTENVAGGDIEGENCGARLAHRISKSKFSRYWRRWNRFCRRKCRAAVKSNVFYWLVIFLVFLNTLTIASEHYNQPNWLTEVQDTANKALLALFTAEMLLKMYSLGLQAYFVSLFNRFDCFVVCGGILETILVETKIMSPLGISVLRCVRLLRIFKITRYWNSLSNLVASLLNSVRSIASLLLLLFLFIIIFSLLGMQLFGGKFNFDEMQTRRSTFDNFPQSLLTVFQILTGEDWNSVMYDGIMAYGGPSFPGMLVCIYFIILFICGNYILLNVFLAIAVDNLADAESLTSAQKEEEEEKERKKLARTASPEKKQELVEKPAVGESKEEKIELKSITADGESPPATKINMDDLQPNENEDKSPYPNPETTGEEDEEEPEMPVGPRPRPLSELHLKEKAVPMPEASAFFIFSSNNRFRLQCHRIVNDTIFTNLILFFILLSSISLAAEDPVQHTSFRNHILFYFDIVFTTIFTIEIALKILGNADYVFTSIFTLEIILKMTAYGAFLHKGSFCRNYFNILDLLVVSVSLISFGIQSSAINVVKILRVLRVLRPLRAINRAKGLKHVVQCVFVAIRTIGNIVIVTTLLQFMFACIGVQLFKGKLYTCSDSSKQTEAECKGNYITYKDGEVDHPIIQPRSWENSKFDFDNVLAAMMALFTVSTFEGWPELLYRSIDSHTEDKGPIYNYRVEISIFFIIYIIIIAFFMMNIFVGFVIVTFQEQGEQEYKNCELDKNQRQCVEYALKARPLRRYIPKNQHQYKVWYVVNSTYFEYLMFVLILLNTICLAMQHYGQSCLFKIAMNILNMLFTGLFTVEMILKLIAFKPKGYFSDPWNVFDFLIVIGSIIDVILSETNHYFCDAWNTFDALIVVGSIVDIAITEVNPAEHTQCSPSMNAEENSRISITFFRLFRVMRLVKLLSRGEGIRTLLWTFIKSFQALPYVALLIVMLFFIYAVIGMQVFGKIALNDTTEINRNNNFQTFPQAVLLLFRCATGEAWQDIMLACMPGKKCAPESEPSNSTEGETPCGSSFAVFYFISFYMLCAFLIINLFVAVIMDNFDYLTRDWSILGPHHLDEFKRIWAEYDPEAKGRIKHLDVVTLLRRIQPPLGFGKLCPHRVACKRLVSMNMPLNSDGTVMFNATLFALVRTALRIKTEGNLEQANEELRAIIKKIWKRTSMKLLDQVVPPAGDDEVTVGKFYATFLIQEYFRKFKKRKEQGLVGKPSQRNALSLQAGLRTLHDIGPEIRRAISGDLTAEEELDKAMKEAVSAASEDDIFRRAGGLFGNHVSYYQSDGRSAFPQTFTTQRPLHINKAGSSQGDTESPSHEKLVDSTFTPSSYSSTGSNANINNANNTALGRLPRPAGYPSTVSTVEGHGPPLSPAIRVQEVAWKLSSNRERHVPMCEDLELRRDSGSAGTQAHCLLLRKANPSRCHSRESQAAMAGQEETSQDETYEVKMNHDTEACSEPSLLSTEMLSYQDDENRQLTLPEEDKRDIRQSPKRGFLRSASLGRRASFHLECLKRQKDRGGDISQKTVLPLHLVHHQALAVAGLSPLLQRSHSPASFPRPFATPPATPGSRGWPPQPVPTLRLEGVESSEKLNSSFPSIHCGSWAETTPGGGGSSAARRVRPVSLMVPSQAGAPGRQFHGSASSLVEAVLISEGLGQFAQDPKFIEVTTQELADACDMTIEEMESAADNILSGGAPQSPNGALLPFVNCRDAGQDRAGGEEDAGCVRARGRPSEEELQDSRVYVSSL
Cytochrome P450 3A4, sequence (P08684 whole entry): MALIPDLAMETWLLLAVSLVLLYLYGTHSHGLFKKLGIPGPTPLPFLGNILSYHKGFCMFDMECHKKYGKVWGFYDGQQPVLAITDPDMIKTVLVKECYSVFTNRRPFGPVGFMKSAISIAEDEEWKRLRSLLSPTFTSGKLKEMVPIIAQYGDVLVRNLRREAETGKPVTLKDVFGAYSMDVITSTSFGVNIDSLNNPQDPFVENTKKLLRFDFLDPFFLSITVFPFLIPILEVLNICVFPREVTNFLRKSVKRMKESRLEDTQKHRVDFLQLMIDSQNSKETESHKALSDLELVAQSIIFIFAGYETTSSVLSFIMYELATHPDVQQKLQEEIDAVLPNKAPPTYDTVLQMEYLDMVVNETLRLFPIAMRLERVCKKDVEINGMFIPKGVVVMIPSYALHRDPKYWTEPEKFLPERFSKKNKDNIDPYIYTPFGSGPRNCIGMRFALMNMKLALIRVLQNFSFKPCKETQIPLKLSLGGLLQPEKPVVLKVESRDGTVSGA

Compound | inhibition (INH) (Cytochrome P450 2C9) | solubility [1] | inhibition (INH) (Cytochrome P450 3A4) | Ki (Orexin receptor type 2) | INH (Cytochrome P450 2C9) | INH (Cytochrome P450 3A4) | solubility [4] | inhibition (INH) [2] | Ki [3] | Ratio Ki (CHO)
O=C(c1ccccc1-n1nccn1)N1CCC(F)(F)C(Oc2ccc3cccnc3n2)C1 (stereo not given) | Active | Insoluble | Active | > 1410 nM |  |  |  | Active | 1160 nM | 
O=C(c1cccc(F)c1)N1CCC(F)(F)C(Oc2ccc3ccccc3n2)C1 (racemic) | Active | Insoluble | Active | > 4380 nM |  |  |  | Active | 91 nM | > 48
O=C(c1ccccc1-n1nccn1)N1CCC(F)(F)C(O)C1 (stereo not given) |  |  |  | > 3370 nM |  |  |  |  | 2240 nM | 
COc1ccccc1C(=O)N1CCC(F)(F)C(Oc2ccc3ccccc3n2)C1 (racemic) | Active | Insoluble | Active | > 2630 nM |  |  |  | Active | 24 nM | > 110
O=C(c1ccccc1-n1nccn1)N1CCC(F)(F)C(Oc2ncc3ccccc3n2)C1 (stereo not given) | Active | Insoluble | Active | 1470 nM |  |  |  | Active | 13 nM | 113
O=C(c1ccnc2[nH]cnc12)N1CCC(F)(F)C(Oc2ccc3ccccc3n2)C1 (racemic) |  |  |  | > 5870 nM |  |  |  |  | 89 nM | > 65
Cc1ccccc1C(=O)N1CCC(F)(F)C(Oc2ccc3ccccc3n2)C1 (racemic) | Active | Insoluble | Active | > 2630 nM |  |  |  | Active | 52 nM | > 51
O=C(c1ccc(F)cc1)N1CCC(F)(F)C(Oc2ccc3ccccc3n2)C1 (racemic) | Active | Insoluble | Active | > 4380 nM |  |  |  | Active | 1080 nM | > 4
COc1ccc(F)c(C(=O)N2CCC(F)(F)[C@@H](Oc3ccc4ccccc4n3)C2)c1F |  | Insoluble |  | 1230 nM | 10.8 µM | 6.7 µM |  | Active | 1.1 nM | 1120
COc1ccc(F)c(C(=O)N2CCC(F)(F)C(Oc3ccc4ccccc4n3)C2)c1 (racemic) |  | Insoluble |  | 1620 nM | 10.8 µM | 6.7 µM |  | Active | 3.4 nM | 476
O=C(c1cccn2cncc12)N1CCC(F)(F)C(Oc2ccc3ccccc3n2)C1 (racemic) |  |  |  | > 12700 nM |  |  |  |  | 2.9 nM | > 439
O=C(c1cccc2cncn12)N1CCC(F)(F)C(Oc2ccc3ccccc3n2)C1 (racemic) |  |  |  | > 2100 nM |  |  |  |  | 52 nM | > 40
O=C(c1ccccc1F)N1CCC(F)(F)C(Oc2ccc3ccccc3n2)C1 (racemic) | Active | Insoluble | Active | > 1770 nM |  |  |  | Active | 23 nM | > 77
O=C(c1cccc2nccn12)N1CCC(F)(F)C(Oc2ccc3ccccc3n2)C1 (racemic) |  |  |  | > 3330 nM |  |  |  |  | 564 nM | > 6
COc1cccc(C(=O)N2CCC(F)(F)C(Oc3ccc4ccccc4n3)C2)c1 (racemic) | Active | Insoluble | Active | > 4380 nM |  |  |  | Active | 9.1 nM | > 481
COc1ccc(C[C@H]2c3cc(OC)c(OC)cc3CCN2[C@@H](C(=O)NC(C)C)c2ccccc2)cc1OC |  |  |  |  |  |  |  |  | 6 nM | 
O=C(c1ccccc1-n1nccn1)N1CCC(F)(F)C(Oc2ccc3ccccc3n2)C1 (racemic) |  |  |  | 1140 nM |  |  |  |  | 3.9 nM | 292
O=C(c1ccccc1)N1CCC(F)(F)C(Oc2ccc3ccccc3n2)C1 (racemic) | Active | Insoluble | Active | > 12700 nM |  |  |  | Active | 55 nM | > 230

Second part, led by results:

inhibition (INH) (Cytochrome P450 2C9) | solubility [1] | inhibition (INH) (Cytochrome P450 3A4) | Ki (Orexin receptor type 2) | INH (Cytochrome P450 2C9) | INH (Cytochrome P450 3A4) | solubility [4] | Compound | inhibition (INH) [2] | Ki [3] | Ratio Ki (CHO)
 |  |  | 281 nM |  |  |  | O=C(c1ccccc1-c1ncccn1)N1CCC(F)(F)[C@@H](Oc2ccc3ccccc3n2)C1 |  | 1.8 nM | 156
 |  |  | 108 nM |  |  |  | O=C(c1cncc2[nH]ccc12)N1CCC(F)(F)[C@@H](Oc2ccc3ccccc3n2)C1 |  | 0.28 nM | 386
 |  |  | 9 nM |  |  |  | C[C@@H]1CC[C@@H](Oc2ccc3ccccc3n2)CN1C(=O)c1ccccc1-n1nccn1 |  | 3.9 nM | 2.3
Active | Insoluble | Active | 467 nM |  |  |  | O=C(c1ccccc1-n1nccn1)N1CCC(F)(F)C(Oc2ccc(C(F)(F)F)cn2)C1 (stereo not given) | Active | 14 nM | 33
Active | Insoluble | Active | 933 nM |  |  |  | O=C(c1ccccc1-n1nccn1)N1CCC(F)(F)C(Oc2cnc3ccccc3n2)C1 (stereo not given) | Active | 13 nM | 72
Active | Insoluble | Active | 220 nM |  |  |  | O=C(c1ccccc1-n1nccn1)N1CCC(F)(F)C(Oc2nc3ccccc3s2)C1 (stereo not given) | Active | 2.3 nM | 96
 |  |  | 193 nM |  |  |  | O=C(c1cccc(-c2ncc[nH]2)c1)N1CCC(F)(F)[C@@H](Oc2ccc3ccccc3n2)C1 |  | 0.14 nM | 1000 to 1380
Active | Insoluble | Active | 467 nM |  |  |  | O=C(c1ccccc1-n1nccn1)N1CCC(F)(F)C(Oc2nc3ccccc3o2)C1 (stereo not given) | Active | 49 nM | 9.5
 |  |  | 871 nM |  |  |  | O=C(c1cccc(-n2nccn2)c1)N1CCC(F)(F)[C@@H](Oc2ccc3ccccc3n2)C1 |  | 8.3 nM | 104
Active | Insoluble | Active | 1040 nM |  |  |  | O=C(c1ccccc1-n1nccn1)N1CCC(F)(F)C(Oc2ccccn2)C1 (stereo not given) | Active | 4050 nM | 0.26
Active | Insoluble | Active | 277 nM |  |  |  | O=C(c1ccccc1-n1nccn1)N1CCC(F)(F)C(Oc2ccnc3ccccc23)C1 (stereo not given) | Active | 7970 nM | 0.035
Active | Insoluble | Active | 2.8 nM |  |  |  | O=C(c1ccccc1-n1nccn1)N1CCC(F)(F)C(Oc2nccc3ccccc23)C1 (stereo not given) | Active | 6.5 nM | 0.43
Active | Insoluble | Active | 907 nM |  |  |  | O=C(c1ccccc1-n1nccn1)N1CCC(F)(F)C(Oc2cccc(C(F)(F)F)n2)C1 (stereo not given) | Active | 240 nM | 3.8
Active | Insoluble | Active | 379 nM |  |  |  | O=C(c1ccccc1-n1nccn1)N1CCC(F)(F)C(Oc2cc3ccccc3cn2)C1 (stereo not given) | Active | 59 nM | 6.4
Active | Insoluble | Active | 14 nM |  |  |  | O=C(c1ccccc1-n1nccn1)N1CCC(F)(F)C(Oc2cc(C(F)(F)F)ccn2)C1 (stereo not given) | Active | 292 nM | 0.05
 |  |  | 27 nM |  |  |  | O=C(c1ccccc1-n1nccn1)N1CCC[C@@H](Oc2ccc3ccccc3n2)C1 |  | 1.4 nM | 19
 |  |  | 120 nM |  |  | 13 µM (≈ 5.3 µg/mL) | O=C(c1cccc2[nH]ccc12)N1CCC(F)(F)[C@@H](Oc2ccc3ccccc3n2)C1 |  | 0.5 nM | 240
 |  |  | 11 nM |  |  |  | Cc1ccc(-c2ncccn2)c(C(=O)N2CC(COc3ccc(F)cn3)CC[C@H]2C)c1 (stereo not given in full) |  | 11 nM | 1.1
 |  |  | 861 nM |  |  |  | O=C(c1cccc2ncccc12)N1CCC(F)(F)C(Oc2ccc3ccccc3n2)C1 (racemic) |  | 140 nM | 6.2
 |  |  | 627 nM |  |  |  | O=C(c1cccc(-n2cccn2)c1)N1CCC(F)(F)[C@@H](Oc2ccc3ccccc3n2)C1 |  | 1.1 nM | 570
